Test results reported in patent publication US20240247030A1, “TARGETED DELIVERY OF TERTIARY AMINE-CONTAINING DRUG SUBSTANCES” (Seagen Inc., priority 2014, published 2024).
In brackets after ≈: the same amount, converted by molar mass. Read-outs that look alike come from different tables or passages of the source. *1 amine or outer side, *2 acyl side, *3 side chain or, on linkers, in order; H or OH if unused. Where a SMILES comes first, the peptide text is derived from it. [ ]: non-standard residue; d: D form. The star is where a group is joined. Dolaproine = CO[C@@H]([C@@H]1CCCN1)[C@@H](C)C(=O)O; Hexanoyl(6-maleimido) = O=C1C=CC(=O)N1CCCCCC(=O)*; Dil = CC[C@H](C)[C@H](NC)[C@@H](CC(=O)O)OC; PABC = O=C(OCc1ccc(N[*:1])cc1)[*:2]; Cit = NC(=O)NCCC[C@H](N)C(=O)O; NMeV = CN[C@H](C(=O)O)C(C)C

Columns and labels:
[1] = Pharmacokinetics of radiolabeled antibody or ADC; type: in vivo, rat; details: 1 mg/kg i.v., radiolabeled non-targeting ADC
Description: PK test articles were radiolabeled using the following procedure.
Each test article was dosed once in replicate animals.

[2] = tested on: Hep3B hepatocellular carcinoma cells; experiment: In vitro cytotoxicity (CellTiter-Glo, 96 h); type: cell-based; details: Table 10; cAC10 conjugate, 8 drug units/Ab; antigen-negative cells
Description: (§1) In vitro assays. Cells cultured in log-phase growth were seeded for 24 h in 96-well plates containing 150 μL RPMI 1640 supplemented with 20% FBS. Serial dilutions of antibody-drug conjugates in cell culture media were prepared at 4× working concentrations; 50 μL of each dilution was added to the 96-well plates. Following addition of ADC, cells were incubated with test articles for 4 d at 37° C. After 96 h, growth inhibition was assessed by CellTiter-Glo™ (Promega, Madison, W1) and luminescence was measured on a plate reader. The IC50 value, determined in triplicate, is defined here as the concentration that results in a 50% reduction in cell growth relative to untreated controls.

DEL/BVR MDR+ ALCL cells = type: cell-based
Description: as §1

L428 MDR+ HL cells = experiment: In vitro cytotoxicity (CellTiter-Glo, 96 h); type: cell-based; details: for IC50: Homo sapiens, L-428, 96 h, read-out: IC50, L428, MDR+ HL, Table 6, free drug, 96 hours
Karpas299 ALCL cells = experiment: In vitro cytotoxicity (CellTiter-Glo, 96 h); type: cell-based; details: for IC50: Homo sapiens, KARPAS-299, 96 h, read-out: IC50, Karpas299, ALCL, Table 6, free drug, 96 hours
Description: as §1

DEL ALCL cells = type: cell-based
[3] = tested on: L540cy Hodgkin lymphoma cells; experiment: In vitro cytotoxicity (CellTiter-Glo, 96 h); type: cell-based; details: for IC50: L540cy, read-out: IC50, L540cy, HL, Table 6, free drug, 96 hours
HL60/RV MDR+ AML cells = experiment: In vitro cytotoxicity (CellTiter-Glo, 96 h); type: cell-based; details: for IC50: Homo sapiens, HL-60, 96 h, read-out: IC50, HL60/RV, MDR+ AML, Table 6, free drug, 96 hours
Description: as §1

HL60 AML cells = experiment: cells; type: cell-based; details: for IC50: Homo sapiens, HL-60, 96 h, read-out: IC50, HL60, AML, Table 6, free drug, 96 hours
Description: as §1

panel of cell lines = experiment: In vitro cytotoxicity, statements across a panel of cell lines; type: cell-based
Description: as §1

[4] = Table 10, cAC10 conjugate, 8 drug units/Ab
[5] = Table 7, cAC10 conjugate of the Drug-Linker, 8 D+/Ab, 96 h
[6] = Table 11, cAC10 conjugate, 8-drugs/mAb
[7] = Table 15, cOKT-9 conjugate, 8-drugs/Ab

CC[C@H](C)[C@@H]([C@@H](CC(=O)N1CCC[C@H]1[C@H](OC)[C@@H](C)C(=O)N[C@H](C)[C@@H](O)c1ccccc1)OC)N(C)C(=O)[C@@H](NC(=O)[C@H](C(C)C)[N+](C)(C)Cc1ccc(O[C@@H]2O[C@H](C(=O)O)[C@@H](O)[C@H](O)[C@H]2O)c(NC(=O)CCNC(=O)[C@H](CN)N2C(=O)C=CC2=O)c1)C(C)C [Compound 8]
clearance / exposure profile compared with unconjugated antibody (FIG. 12-14) [1]: PK properties identical to that of unmodified antibody through 7 days

CC[C@H](C)[C@H](NC(=O)[C@H]1CCCC[N+]1(C)Cc1ccc(NC(=O)[C@H](C)NC(=O)[C@@H](NC(=O)[C@H](CN)N2C(=O)C=CC2=O)C(C)C)cc1)C(=O)N(C)[C@H](C[C@@H](OC(C)=O)c1nc(C(=O)N[C@@H](Cc2ccccc2)C[C@H](C)C(=O)O)cs1)C(C)C (stereo partly drawn) [Compound 32, (2R)-2-(((2S,3S)-1-(((1R,3R)-1-acetoxy-1-(4-(((2R,4S)-4-carboxy-1-phenylpentan-2-yl)carbamoyl)thiazol-2-yl)-4-methylpentan-3-yl)(methyl)amino)-3-methyl-1-oxopentan-2-yl)carbamoyl)-1-(4-((S)-2-((S)-2-((S)-3-amino-2-(2,5-dioxo-2,5-dihydro-1H-pyrrol-1-yl)propanamido)-3-methylbutanamido)propanamido)benzyl)-1-methylpiperidin-1-ium]
IC50, Hep3B, CD30- HCC [2]: >1000 ng/mL | IC50, DEL/BVR, MDR+ ALCL (DEL/BVR MDR+ ALCL cells; [4]): 4 ng/mL | IC50, L428, MDR+ HL (L428 MDR+ HL cells; [4]): 1 ng/mL

CCCO[C@H](C[C@H](C(C)C)N(C)C(=O)[C@@H](NC(=O)[C@H]1CCCC[N+]1(C)Cc1ccc(O[C@@H]2O[C@H](C(=O)O)[C@@H](O)[C@H](O)[C@H]2O)c(NC(=O)CCNC(=O)[C@H](CN)N2C(=O)C=CC2=O)c1)[C@@H](C)CC)c1nc(C(=O)N[C@@H](Cc2ccccc2)C[C@H](C)C(=O)O)cs1 (stereo partly drawn) [Compound 80, (2R)-1-(3-(3-((S)-3-amino-2-(2,5-dioxo-2,5-dihydro-1H-pyrrol-1-yl)propanamido)propanamido)-4-(((2S,3R,4S,5S,6S)-6-carboxy-3,4,5-trihydroxytetrahydro-2H-pyran-2-yl)oxy)benzyl)-2-(((2S,3S)-1-(((1R,3R)-1-(4-(((2R,4S)-4-carboxy-1-phenylpentan-2-yl)carbamoyl)thiazol-2-yl)-4-methyl-1-propoxypentan-3-yl)(methyl)amino)-3-methyl-1-oxopentan-2-yl)carbamoyl)-1-methylpiperidin-1-ium]
clearance / exposure profile compared with unconjugated antibody (FIG. 12-14) [1]: cleared from circulation much more rapidly than the unmodified antibody

CC[C@H](C)[C@H](NC(=O)[C@H]1CCCC[N+]1(C)Cc1ccc(O[C@@H]2O[C@H](C(=O)O)[C@@H](O)[C@H](O)[C@H]2O)c(NC(=O)CCNC(=O)[C@H](CN)N2C(=O)C=CC2=O)c1)C(=O)N(C)[C@H](C[C@@H](OC(C)=O)c1nc(C(=O)N[C@@H](Cc2ccccc2)C[C@H](C)C(=O)O)cs1)C(C)C (stereo partly shown) [Compound 104]
IC50, Karpas299, ALCL (Karpas299 ALCL cells; Table 7, cAC10 (anti-CD30) conjugate of the Drug-Linker, 8 D+/Ab, 96 h): 0.6 ng/mL | IC50, Hep3B, CD30- HCC [2]: >1000 ng/mL | IC50, DEL/BVR, MDR+ ALCL (DEL/BVR MDR+ ALCL cells; [5]): 3 ng/mL | IC50, DEL/BVR, MDR+ ALCL (DEL/BVR MDR+ ALCL cells; [4]): 4 ng/mL | IC50, DEL, ALCL (DEL ALCL cells; [5]): 2 ng/mL | IC50, DEL, ALCL (DEL ALCL cells; [6]): 2 ng/mL | IC50, L428, MDR+ HL (L428 MDR+ HL cells; [5]): 0.5 ng/mL | IC50, L428, MDR+ HL (L428 MDR+ HL cells; [4]): 0.4 ng/mL | IC50, L540cy, HL [3, 5]: 4 ng/mL

CC[C@H](C)[C@H](NC(=O)[C@H]1CCCC[N+]1(C)Cc1ccc(NC(=O)[C@H](CCC(=O)O)NC(=O)[C@@H](NC(=O)[C@H](CN)N2C(=O)C=CC2=O)C(C)C)cc1)C(=O)N(C)[C@H](C[C@@H](OC(C)=O)c1nc(C(=O)N[C@@H](Cc2ccccc2)C[C@H](C)C(=O)O)cs1)C(C)C (stereo partly drawn) [Compound 113, (2R)-2-(((2S,3S)-1-(((1R,3R)-1-acetoxy-1-(4-(((2R,4S)-4-carboxy-1-phenylpentan-2-yl)carbamoyl)thiazol-2-yl)-4-methylpentan-3-yl)(methyl)amino)-3-methyl-1-oxopentan-2-yl)carbamoyl)-1-(4-((S)-2-((S)-2-((S)-3-amino-2-(2,5-dioxo-2,5-dihydro-1H-pyrrol-1-yl)propanamido)-3-methylbutanamido)-4-carboxybutanamido)benzyl)-1-methylpiperidin-1-ium]
IC50, Hep3B, CD30- HCC [2]: >1000 ng/mL | IC50, DEL/BVR, MDR+ ALCL (DEL/BVR MDR+ ALCL cells; [4]): 2 ng/mL | IC50, L428, MDR+ HL (L428 MDR+ HL cells; [4]): 0.3 ng/mL

CCCC(=O)O[C@H](C[C@H](C(C)C)N(C)C(=O)[C@@H](NC(=O)[C@H]1CCCCN1C)[C@@H](C)CC)c1nc(C(=O)N[C@@H](Cc2ccccc2)C[C@H](C)C(=O)O)cs1 [Compound 156, (2S,4R)-4-(2-((1R,3R)-1-(butyryloxy)-3-((2S,3S)—N,3-dimethyl-2-((R)-1-methylpiperidine-2-carboxamido)pentanamido)-4-methylpentyl)thiazole-4-carboxamido)-2-methyl-5-phenylpentanoic acid]
IC50 (Karpas299 ALCL cells): 0.02 nM | IC50 (HL60/RV MDR+ AML cells): 6 nM | IC50 (HL60 AML cells): 0.1 nM | IC50 (L428 MDR+ HL cells): 0.12 nM | IC50 ([3]; 96 h): 0.1 nM

CC[C@H](C)[C@H](NC(=O)[C@H]1CCCCN1C)C(=O)N(C)[C@H](C[C@@H](OC(=O)C(C)C)c1nc(C(=O)N[C@@H](Cc2ccccc2)C[C@H](C)C(=O)O)cs1)C(C)C [Compound 157, (2S,4R)-4-(2-((1R,3R)-3-((2S,3S)—N,3-dimethyl-2-((R)-1-methylpiperidine-2-carboxamido)pentanamido)-1-(isobutyryloxy)-4-methylpentyl)thiazole-4-carboxamido)-2-methyl-S-phenylpentanoic acid]
IC50 (Karpas299 ALCL cells): 0.011 nM | IC50 (HL60/RV MDR+ AML cells): 3 nM | IC50 (HL60 AML cells): 0.08 nM | IC50 (L428 MDR+ HL cells): 0.05 nM | IC50 ([3]; 96 h): 0.04 nM

CC[C@H](C)[C@H](NC(=O)[C@H]1CCCCN1C)C(=O)N(C)[C@H](C[C@@H](OC(=O)CC(C)(C)C)c1nc(C(=O)N[C@@H](Cc2ccccc2)C[C@H](C)C(=O)O)cs1)C(C)C [Compound 159, (2S,4R)-4-(2-((1R,3R)-3-((2S,3S)—N,3-dimethyl-2-((R)-1-methylpiperidine-2-carboxamido)pentanamido)-1-((3,3-dimethylbutanoyl)oxy)-4-methylpentyl)thiazole-4-carboxamido)-2-methyl-5-phenylpentanoic acid]
potency loss relative to tubulysin M (panel of cell lines; free drug, across the cell lines of Table 6): 5-47 fold

CC[C@H](C)[C@H](NC(=O)[C@H]1CCCCN1C(=O)CCCCCN1C(=O)C=CC1=O)C(=O)N(C)[C@H](C[C@@H](OC)c1nc(C(=O)N[C@@H](Cc2ccccc2)C[C@H](C)C(=O)O)cs1)C(C)C [Compound 172, (2S,4R)-4-(2-((1R,3R)-3-((2S,3S)-2-((R)-1-(6-(2,5-dioxo-2,5-dihydro-1H-pyrrol-1-yl)hexanoyl)piperidine-2-carboxamido)-N,3-dimethylpentanamido)-1-methoxy-4-methylpentyl)thiazole-4-carboxamido)-2-methyl-5-phenylpentanoic acid]
IC50, Karpas299, ALCL (Karpas299 ALCL cells; Table 11, cAC10 conjugate of the Drug-Linker, 8-drugs/mAb): >1000 ng/mL | cytotoxic activity in words, conjugates on CD30+ lymphoma cell lines (panel of cell lines; conjugate of the named Drug Linker or named ADC): inactive | IC50, DEL, ALCL (DEL ALCL cells; [6]): >1000 ng/mL | IC50, L540cy, HL [3, 6]: >1000 ng/mL

CC[C@H](C)[C@@H]([C@@H](CC(=O)N1CCC[C@H]1[C@H](OC)[C@@H](C)C(=O)N[C@@H](Cc1ccccc1)C(=O)O)OC)N(C)C(=O)[C@@H](NC(=O)[C@H](C(C)C)N(C)C(=O)OCc1ccc(NC(=O)[C@H](CCCNC(N)=O)NC(=O)[C@@H](NC(=O)CCCCCN2C(=O)C=CC2=O)C(C)C)cc1)C(C)C [Compound 193, MC-Val-Cit-PABC-MMAF, reference compound] ({Hexanoyl(6-maleimido)}-V[Cit][PABC][NMeV]V[Dil][Dolaproine]F-OH)
IC50, HL60/RV, MDR+ AML (HL60/RV MDR+ AML cells; [7]): 15 ng/mL (≈ 0.0113 µM) | IC50, HL60, AML (HL60 AML cells; [7]): 33 ng/mL (≈ 0.0248 µM)
